Source: patent US20210283107A1, “Methods to Expand the Spectrum of Gram-Positive Antibiotics” (NORTH CAROLINA STATE UNIVERSITY, priority 2016, published 2021)
Values after ≈ are worked out from the molar mass of the structure shown.

Experiments:
[1] = tested on: A. baumannii strain 5075 (AB5075); assay: Macrolide sensitization / antibiotic resensitization: antibiotic MIC in presence of compound (broth microdilution); format: cell-based, Acinetobacter baumannii; settings: AB5075; for Fold reduction (erythromycin MIC): compound at 60 μM vs antibiotic alone
Protocol: A. baumannii 5075 was plated on LB agar, then grown in CAMHB for 6-8 h and this culture was used to inoculate fresh CAMHB (5×10^5 CFU/mL). The resulting suspension was aliquoted (5 mL) into culture tubes and compound, from 100 mM DMSO stock, was added. One aliquot was not treated (control). 1 mL of each sample was transferred to a new culture tube and antibiotic was added. Rows 2-12 of a 96-well microtiter plate were filled with 100 μL/well from the remaining 4 mL bacterial subcultures, allowing the concentration of compound to be kept uniform throughout the antibiotic dilution procedure. Samples containing antibiotic were aliquoted (200 μL) into the corresponding first row wells of the microtiter plate. Row 1 wells were mixed 6 to 8 times then 100 μL was withdrawn and transferred to row 2. Row 2 wells were mixed 6 to 8 times, followed by a 100 μL transfer from row 2 to row 3. This procedure was repeated to serially dilute the rest of the rows of the microtiter plate, with the exception of the final row, to which no antibiotic was added (to check for growth of bacteria in the presence of compound alone). The microtiter plate was then covered, placed in a covered damp plastic container and incubated under stationary conditions at 37° C. After 16-18 hrs minimum inhibitory concentration (MIC) values were recorded as the lowest concentration of antibiotic at which there was no visible growth of bacteria. Experiments were carried out in duplicate each time and repeated at least twice.
The difference in antibiotic MIC between the control (no compound) sample, and the samples containing each compound was recorded as the fold-reduction.
Day Cultures (6 h) were subcultured to 5×10^5 CFU/mL in cation adjusted Mueller-Hinton broth (CAMHB). […] One milliliter of the resulting solution was aliquoted into a separate culture tube and was dosed with antibiotic so that the resulting concentration was the highest desirable concentration to be tested. Bacteria treated with antibiotic alone were used as a control. Row one of a 96-well plate was filled with 200 μL of the antibiotic/compound solution, and the remaining rows were filled with 100 μL of the remaining 4 mL bacterial subculture. The wells in row one were mixed five times before 100 μL was transferred to the following row (row two). Row two was then mixed five times, and 100 μL was transferred to row three. This process was repeated until the second to last row had been reached. The last row is left unexposed to antibiotic in order to serve as a negative control. The antibiotic only treated bacteria was plated by aliquoting 200 μL of the treated bacteria into row one and filling the remaining rows with untreated bacteria from the original bacteria subculture. The rows were mixed in the same way as described above. Plates were covered with Glad Press n'Seal and were incubated under stationary conditions at 37° C. for 16 hours. MIC values were recorded as the lowest concentration at which no bacterial growth was observed. Fold reductions were determined by comparison of the compound treated wells with the antibiotic only treated control wells.

[2] = tested on: A. baumannii mutant AB522; assay: MIC against Tn-seq transposon mutant AB522; format: cell-based; settings: Acinetobacter baumannii
Protocol: (§1) During individual MIC screening, two mutants, AB522 and AB1310, were identified due to their increased sensitivity to the three macrolide antibiotics and vancomycin when compared to AB 5075 (Table 17).
(§2) Day Cultures (6 h) were subcultured to 5×10^5 CFU/mL in cation adjusted Mueller-Hinton broth (CAMHB). Aliquots (1 mL) were placed in culture tubes, and compound was added from 100 mM stock solutions, such that the compound concentration equaled the highest concentration tested (200 μM or 64 μg/mL). Samples were then aliquoted (200 μL) into the first row of wells of a 96-well plate, with all remaining wells being filled with 100 μL of initial bacterial subculture. The wells in row one were mixed five times before 100 μL was transferred to the following row (row two). Row two was then mixed five times, and 100 μL was transferred to row three. This processed was repeated until the final row had been mixed. This process provided a serial dilution of the compound. Plates were covered with Glad Press n'Seal and were incubated under stationary conditions at 37° C. for 16 hours. MIC values were recorded as the lowest concentration at which no bacterial growth was observed.

[3] = tested on: A. baumannii mutant AB1310; assay: MIC against Tn-seq transposon mutant AB1310; format: cell-based; settings: Acinetobacter baumannii
Protocol: as §1, §2

[4] = tested on: AB5075; assay: H33342 accumulation assay (efflux); format: cell-based, Acinetobacter baumannii; settings: for H33342 accumulation, fluorescence at 355 and 460 nm: 25 μM CCCP, immediately following exposure
Protocol: In addition to the evaluation of the relationship between compounds 1 and 4 and colistin, the impact of compound 1 on efflux was evaluated using AB5075 and a bisBenzimide H33342 trihydrochloride (H33342) accumulation assay. Using a procedure adapted from Coldham et al. (A 96-well plate fluorescence assay for assessment of cellular permeability and active efflux in Salmonella enterica serovar Typhimurium and Escherichia coli. J Antimicrob Chemother, 2010. 65(8): p. 1655-63) and Richmond et al. (Efflux in Acinetobacter baumannii can be determined by measuring accumulation of H33342 (bis-benzamide). J Antimicrob Chemother, 2013. 68(7): p. 1594-600), the effect of no treatment, a known inhibitor carbonyl cyanide-m-chlorophenyl hydrazone (CCCP), and compound 1 on efflux was analyzed over 30 minutes and in two different treatment variations. Fluorescence was read using excitation and emission filters of 355 and 460 nm, and the values were processed in excel. The first analysis was performed immediately after treating the bacteria with compound 1 at both 10 and 30 μM and CCCP at 25 μM.
The second analysis was performed after exposing the bacteria to compound 1 at 30 μM for 5-hours shaking at 37° C.

[5] = tested on: A. baumannii strain 5075 (AB5075); assay: Broth microdilution MIC determination of compound alone; format: cell-based; settings: Acinetobacter baumannii; compound alone; AB5075; read-out: MIC
Protocol: Our initial screening began by testing a diverse selection of 2-AI compounds from our internal library for their minimal inhibitory concentrations (MIC) against A. baumannii isolate 5075.
as §2

## CC[C@H]1OC(=O)[C@H](C)[C@@H](O[C@H]2C[C@@](C)(OC)[C@@H](O)[C@H](C)O2)[C@H](C)[C@@H](O[C@@H]2O[C@H](C)C[C@H](N(C)C)[C@H]2O)[C@](C)(O)C[C@@H](C)CN(C)[C@H](C)[C@@H](O)[C@]1(C)O [Azithromycin, azithromycin]
[1]; Acinetobacter baumannii, antibiotic alone, no compound (control row), read-out: MIC (μg/mL) of the antibiotic
  MIC: 64 µg/mL
[2]
  MIC: 4 µg/mL (≈ 5.34 µM)
[3]
  MIC: 4 µg/mL (≈ 5.34 µM)

## N#CC(C#N)=NNc1cccc(Cl)c1 [CCCP, carbonyl cyanide-m-chlorophenyl hydrazone, reference compound]
[4]; time 0 minutes
  H33342 accumulation, fluorescence at 355 and 460 nm: 42,713.8 ± 10,482.1
[4]; time 10 minutes
  H33342 accumulation, fluorescence at 355 and 460 nm: 50,618.3 ± 9,944.3
[4]; time 20 minutes
  H33342 accumulation, fluorescence at 355 and 460 nm: 50,928.8 ± 6,944.8
[4]; time 30 minutes
  H33342 accumulation, fluorescence at 355 and 460 nm: 48,907.2 ± 4,873
[4]; immediately after treating, compound 1 at both 10 and 30 μM, CCCP at 25 μM
  change in H33342 fluorescence over 30 minutes: a notable increase in fluorescence

## Nc1nc(-c2ccc(NC(=O)c3ccc(Br)cc3)cc2)c[nH]1 [Compound 18]
[5]
  MIC: > 200 µM
[1]
  Fold reduction (erythromycin MIC): 4 fold

## Nc1nc(-c2ccc(NC(=O)c3cccc(Br)c3)cc2)c[nH]1 [Compound 19]
[5]
  MIC: > 200 µM
[1]
  Fold reduction (erythromycin MIC): 8 fold
